Reference: ChEMBL document CHEMBL3758173, “Identification of β-Amino alcohol grafted 1,4,5 trisubstituted 1,2,3-triazoles as potent antimalarial agents” (Eur J Med Chem, 2016)
The source made the active and inactive calls. The calls are words filed in the database; no cut-off is given here.

Tests used:
[1] = Selectivity index, ratio of CC50 for monkey kidney VERO cells to IC50 for chloroquine resistant Plasmodium falciparum K1 infected in human erythrocytes; type: functional
[2] = Selectivity index, ratio of CC50 for monkey kidney VERO cells to IC50 for chloroquine sensitive Plasmodium falciparum 3D7 infected in human erythrocytes; type: functional
Plasmodium falciparum [3] = assay: Antiplasmodial activity against chloroquine sensitive Plasmodium falciparum 3D7 infected in human erythrocytes incubated for 72 hrs by SYBR Green1-based fluorescence analysis; type: functional, organism-based; conditions: 3D7, 72 h
Plasmodium falciparum [4] = assay: Antiplasmodial activity against chloroquine resistant Plasmodium falciparum K1 infected in human erythrocytes incubated for 72 hrs by SYBR Green1-based fluorescence analysis; type: functional, organism-based; conditions: K1, 72 h
[5] = Resistance index, ratio of IC50 for chloroquine resistant Plasmodium falciparum K1 infected in human erythrocytes to IC50 for chloroquine sensitive Plasmodium falciparum 3D7 infected in human erythrocytes; type: functional
[6] = Cytotoxicity against monkey kidney Vero cells by resazurin assay; type: cell-based; conditions: chlorocebus sabaeus
[7] = tested on: Plasmodium yoelii nigeriensis; assay: Antiplasmodial activity against multidrug-resistant Plasmodium yoelii nigeriensis infected in Swiss mouse assessed as suppression of parasitaemia at 100 mg/kg, po for 4 days by Geimsa-staining based analysis; type: functional; conditions: 96 h
Mus musculus = assay: Toxicity in multidrug-resistant Plasmodium yoelii nigeriensis infected Swiss mouse assessed as mouse survival at 100 mg/kg/day, po for 4 days; type: organism-based; conditions: in vivo, 96 h
MCF7 [8] = assay: Induction of p53 protein expression in human MCF7 cells at antiplasmodial IC50 after 36 hrs by luciferase reporter assay relative to control; type: functional
MCF7 [9] = assay: Upregulation of p53 level in human MCF7 cells at antiplasmodial IC50 after 48 hrs by immnublotting method; type: functional, cell-based; conditions: TDE = time-dependent effect

SMILES | Ratio CC50/IC50 [1] | Ratio CC50/IC50 [2] | IC50 (Plasmodium falciparum [3]) | IC50 (Plasmodium falciparum [4]) | Ratio IC50 [5] | CC50 [6] | inhibition in vivo at 100 mg/kg [7] | Activity (Mus musculus) | Activity (MCF7 [8]) | Activity (MCF7 [9])
OC(CNc1ccccc1Br)(c1ccc(Cl)cc1)c1nnn(Cc2ccccc2)c1-c1ccc(F)cc1 (stereo not drawn) | >59.1 | >55 | 9090 nM | 8460 nM | 0.93 | > 500000 nM |  |  |  | 
OC(CNc1ccc(Br)cc1)(c1ccc(Cl)cc1)c1nnn(Cc2ccccc2)c1-c1ccc(Br)cc1 (stereo not drawn) | >233.64 | >574.71 | 870 nM | 2040 nM | 2.45 | > 500000 nM | 27.2% | Non-toxic |  | 
CC(C)c1ccc(-c2c(C(O)(CNc3ccc(F)cc3)c3ccc(Cl)cc3)nnn2Cc2ccccc2)cc1 (stereo not drawn) | >299.4 | >316.45 | 1580 nM | 1670 nM | 1.05 | > 500000 nM |  |  |  | 
OC(CNc1ccc(F)cc1)(c1ccc(Cl)cc1)c1nnn(Cc2ccccc2)c1-c1ccc(Br)cc1 (stereo not drawn) | >154.79 | >155.76 | 3210 nM | 3230 nM | 1 | > 500000 nM |  |  |  | 
OC(CNc1ccc(Br)cc1)(c1ccc(Cl)cc1)c1nnn(Cc2ccccc2)c1-c1ccc(F)cc1 (stereo not drawn) | >248.75 | >454.54 | 1100 nM | 2010 nM | 1.82 | > 500000 nM | 64.6% | Non-toxic | Active | 
OC(CNc1ccc(Br)cc1)(c1ccc(Cl)cc1)c1nnn(Cc2ccccc2)c1-c1ccccc1 (stereo not drawn) | >267.37 | >256.41 | 1950 nM | 1870 nM | 0.95 | > 500000 nM |  |  |  | 
Cc1ccc(NCC(O)(c2ccc(Cl)cc2)c2nnn(Cc3ccccc3)c2-c2ccccc2)cc1C (stereo not drawn) | >185.18 | >193.79 | 2580 nM | 2700 nM | 1.04 | > 500000 nM |  |  |  | 
OC(CNc1ccc(F)c(F)c1)(c1ccc(Cl)cc1)c1nnn(Cc2ccccc2)c1-c1ccc(Cl)cc1 (stereo not drawn) | >1000 | >232.55 | 2150 nM | 500 nM | 0.23 | > 500000 nM | 89.9% | Non-toxic |  | 
OC(CNc1ccc(F)cc1)(c1ccc(Cl)cc1)c1nnn(Cc2ccccc2)c1-c1ccccc1 (stereo not drawn) | >140.05 | >151.05 | 3310 nM | 3570 nM | 1.07 | > 500000 nM |  |  |  | 
CCN(CC)CCCC(C)Nc1ccnc2cc(Cl)ccc12 (stereo not drawn) [CHLOROQUINE PHOSPHATE] |  |  |  |  |  | > 500000 nM |  |  |  | 
OC(CNc1ccc(Br)cc1)(c1ccc(Cl)cc1)c1nnn(Cc2ccccc2)c1-c1ccc(Cl)cc1 (stereo not drawn) | >354.6 | >314.4 | 1590 nM | 1410 nM | 0.88 | > 500000 nM |  |  |  | 
Cc1ccc(NCC(O)(c2ccc(Cl)cc2)c2nnn(Cc3ccccc3)c2-c2ccc(F)cc2)cc1C (stereo not drawn) | >178.57 | >187.26 | 2670 nM | 2800 nM | 1.04 | > 500000 nM |  |  |  | 
OC(CNc1ccc(Cl)cc1)(c1ccc(Cl)cc1)c1nnn(Cc2ccccc2)c1-c1ccc(F)cc1 (stereo not drawn) | >242.71 | >175.43 | 2850 nM | 2060 nM | 0.72 | > 500000 nM |  |  |  | 
OC(CNc1ccccc1Br)(c1ccc(Cl)cc1)c1nnn(Cc2ccccc2)c1-c1ccc(Br)cc1 (stereo not drawn) | >58.07 | >43.21 | 11600 nM | 8610 nM | 0.74 | > 500000 nM |  |  |  | 
OC(CNc1ccc(F)cc1)(c1ccc(Cl)cc1)c1nnn(Cc2ccccc2)c1-c1ccc(F)cc1 (stereo not drawn) | >151.97 | >129.19 | 3870 nM | 3290 nM | 0.85 | > 500000 nM |  |  |  | 
COc1cc(NCC(O)(c2ccc(Cl)cc2)c2nnn(Cc3ccccc3)c2-c2ccc(Cl)cc2)ccc1Br (stereo not drawn) | >326.29 | >303.3 | 1650 nM | 1530 nM | 0.92 | > 500000 nM |  |  |  | 
OC(CNc1ccc2c(c1)OCO2)(c1ccc(Cl)cc1)c1nnn(Cc2ccccc2)c1-c1ccc(Cl)cc1 (stereo not drawn) | >195.3 | >183.1 | 2730 nM | 2560 nM | 0.93 | > 500000 nM |  |  |  | 
OC(CNc1ccc(Br)cc1)(c1ccc(Cl)cc1)c1nnn(Cc2ccc(Br)cc2)c1-c1ccc(Cl)cc1 (stereo not drawn) | >297.61 | >206.61 | 2420 nM | 1680 nM | 0.69 | > 500000 nM |  |  |  | 
OC(CNc1cccc2ccccc12)(c1ccc(Cl)cc1)c1nnn(Cc2ccccc2)c1-c1ccc(Cl)cc1 (stereo not drawn) | 235.39 | 217.59 | 1330 nM | 1230 nM | 0.92 | 290000 nM |  |  | Active | tde
OC(CNc1ccc(F)cc1)(c1ccc(Br)cc1)c1nnn(Cc2ccccc2)c1-c1ccccc1 (stereo not drawn) | >108.9 | >184.5 | 2710 nM | 4590 nM | 1.69 | > 500000 nM |  |  |  | 
Cc1ccc(NCC(O)(c2ccc(Cl)cc2)c2nnn(Cc3ccccc3)c2-c2ccc(Cl)cc2)cc1C (stereo not drawn) | 195.31 | 183.15 | 2240 nM | 3180 nM | 1.41 | > 500000 nM |  |  |  | 
OC(CNc1ccc(I)cc1)(c1ccc(Cl)cc1)c1nnn(Cc2ccccc2)c1-c1ccc(Cl)cc1 (stereo not drawn) | >340.1 | >337.83 | 1480 nM | 1470 nM | 0.99 | > 500000 nM |  |  |  | 
Cc1ccc(NCC(O)(c2ccc(Br)cc2)c2nnn(Cc3ccccc3)c2-c2ccccc2)cc1C (stereo not drawn) | >143.6 | >183.8 | 2720 nM | 3480 nM | 1.27 | > 500000 nM |  |  |  | 
Cc1ccc(C(O)(CNc2ccc(C)c(C)c2)c2nnn(Cc3ccccc3)c2-c2ccc(Cl)cc2)cc1 (stereo not drawn) | >185.87 | >280.89 | 1780 nM | 2690 nM | 1.51 | > 500000 nM |  |  |  | 
OC(CNc1ccc(Br)cc1)(c1ccc(Br)cc1)c1nnn(Cc2ccccc2)c1-c1ccccc1 (stereo not drawn) | >1000 | >303.03 | 1650 nM | 500 nM | 0.3 | > 500000 nM | 16.8% | Non-toxic | Active | tde
